# According to patent publication EP0462621A2, “Use of particular compounds for manufacture of pharmaceutical formulations for treatment against various parasites, mycoplasmas, other indications and other infections” (Prendergast, Patrick Thomas, priority 1990, dated 1991):
# Assays:
# [1] = test system: L donovani; test: Amastigotes (AM) in mouse or human macrophages (mos), in-vitro; assay type: cell-based; conditions: Ld., Amastigote
# Description: (§1) Amastigotes of Leishmania can be cultivated in a wide range of mammalian cells, some of which may be used in in-vitro screens. These include (1) a Sticker dog sarcoma (fibroblast) cell line, (2) transformed rodent macrophage cell lines, (3) primary isolated mouse peritoneal macrophages (MP mo), and (4) human monocyte-derived macrophages (HM mo). The methods are similar for all models. Amastigote or promastigote infected cells are maintained in a medium containing the drug for 4-7 days, at 37 C for L. donovani and 33-35 C for L. major and L. mexicana. Drug activity is then assessed by counting (I) the number of infected host cells and/or (II) the number of amastigotes/100 host cells.
# (§2) In-vitro and in-vivo models were used to test activities of a selection of many compounds. Those activities are summarized in Tables 1-3, showing variation between systems and species. Activities measured in the MP mo and HM mo models have shown the best correlation with results obtained in hamster and mouse models.
# [2] = test system: L major/L mexicana; test: as above; assay type: cell-based; conditions: Lm., Amastigote
# Description: as §1, §2
# [3] = test system: L major/L mexicana; test: Amastigote-promastigote (AM-PRO) transformation, in-vitro; assay type: cell-based; conditions: Lm.
# [4] = test system: HIV-1; test: Experiment la(1): HIV-1 infected 81-66-45 cells; assay type: cell-based
# [5] = test system: RH strain T. gondii; test: Growth of Toxoplasma gondii in human foreskin fibroblasts, tritiated uracil incorporation; assay type: cell-based; conditions: various concentrations; Figure 24
# Procedure: An experiment was conducted to evaluate the in-vitro effects of IPA on Toxoplasma Gondii by infecting human foreskin fibroblast monolayers (four replicates per condition) with RH strain T. gondii in the presence of various concentrations of IPA dissolved in Eagle's minimum essential medium without fetal bovine serum. After an initial four hour period of infection, the media and any T. gondii which had not entered the host cells were removed and replaced by media containing 1 u.M tritiated uracil per milliter, and incubated overnight. The mono-layers were lysed, nucleic acids precipitated by trichloroacetic acid, and the precipitates recovered on glass fiber filters. Radioactivity on the filters was measured in a Beckman scintillation spectrometer. Controls included fibroblast monolayers without T. gondii (cell control) and fibroblast monolayers infected by the same inoculum of T. gondii as the IPA treated monolayers (Tg control). The units of uracil incorporation are somewhat lower here because of the lower inoculum of T. gondii.
# [6] = Case study two: HIV positive patient, IPA orally; assay type: in vivo, human
# Procedure: In another case study, […], a homosexual person, was diagnosed HIV positive in June, 1986. […] was also diagnosed as having hepatitis at that time. Beginning on May 7, 1990, IPA was administered orally to […] On May 7, 1990, […] was experiencing (1) weight loss, (2) night sweats, (3) thrush, (4) fungal infections, (5) pneumonia, (6) diarrhea, and (7) hairy leukoplakia.
# Prior to treatment with IPA, V.T. had experienced diarrhea and night sweats for the previous six weeks. […] […] […] As of July 26, 1990, V.T.'s helper/suppressor ration was 0.93.
# [7] = Stability of IPA on storage; assay type: physicochemical
# Procedure: Compounds of Formula la (IPA) have especially low toxicity for pediatrics, and acceptable toxicity of adult humans, although it is somewhat higher than for pediatrics. IPA can be stored dry almost indefinitely if protected from light and stored at -75 °C. IPA is photosensitive and deteriorates at room temperature, whether in a solid form or in aqueous or ethanolic solutions. It was found in experiments that the breakdown rate of IPA is approximately 3% per month in a dark container at room temperature.
# Two lots of IPA (Sample 1 and Sample 2) were tested.
# Infrared spectra of IPA, taken from time to time, as described below, were used to monitor changes which may have occurred in the IPA over time. The compound was generally stored at -10° C. FT-IR data of fresh IPA are listed in the first column of Table la(m). A second FT-IR spectrum of the same compound, after storage at -10 C for 110 days, was taken and the data are listed in the second column of Table la(m). The melting point of the compound was taken at the same time. The original melting point was 128-130 C, and the second melting point, 110 days later, was 129-132 C.
# The observed melting points compare favorably with literature melting points ranging from 126° C to 138° C.
# [8] = test system: cytomegilovirus; test: M413 cells, CMV; assay type: cell-based, cytomegalovirus (CMV)
# Procedure: Confluent monolayers of M413 cells (a type of dipliod human fibroblast cells) in 48 well microtiter plates were used. They were grown in Dulbecco's MEM (minimum essential medium) supplemented with 10% fetal bovine serum and 50 ug/ml gentamicin.
# Stock cytomegalovirus (CMV) was diluted in a series of 10-fold dilutions in the above medium, and […] amounts were added to the wells of the microtiter plates and allowed to absorb virus for 90 minutes at 37 °C.
# Unabsorbed virus was removed by aspiration and 0.5 ml of medium containing dilutions of drug was added to duplicate wells at each concentration of virus.
# After incubating for 5 days, fresh medium was added to each well, no additional drug being included, and the plates were scored for cytopathic effects the next day. The viruses produce characteristic enlarged rounded cells in a cellular background that is completely devoid of such cells.
# The data were expressed as the reciprocal of the greatest dilution producing any of the characteristic rounded cells (the "titer"), and the percent inhibition was calculated by comparing the experimental titer with the control titer, with intermediate results interpreted as those of Experiment la(a).
# The procedure described for Experiment la(j) was followed with cytomegalovirus (CMV) substituted for MAB to HSV-1.
structure (smiles),measurement,setting,value
"CC(C)=CCNc1ncnc2c1ncn2[C@@H]1O[C@H](CO)[C@@H](O)[C@H]1O [IPA, N^6-(Δ^2-isopentenyl) adenosine]","Activity, AM in mouse or human mos",[1],+ +
same,"Activity, AM in mouse or human mos",[2],+ +
same,"Activity, AM-PRO transform-ation",[3],+ +
same,IC50,"[4]; Human immunodeficiency virus 1, from Figures 16 and 17, read-out: IC50 - The concentration of IPA which inhibits the replication of HIV-1 by 50%",6 µM
same,IC90,"[4]; Human immunodeficiency virus 1, from Figures 16 and 17, read-out: IC90 - The concentration of IPA which inhibits the replication of HIV-1 by 90%",10 µM
same,effect on the growth of T. gondii,[5],inhibitory effect
same,toxic side effects,[6],no permanent toxic side effects
same,weight stabilized at,[6],133 lbs
same,hairy leukoplakia,[6]; IPA orally,complete remission
same,helper/suppressor ratio,"[6]; July 26, 1990",0.93
same,weight,"[6]; June 11, 1990, 119 lbs on May 7, 1990 (start of IPA)",132 lbs
same,helper/suppressor ratio,"[6]; June 21, 1990, 0.53 on May 7, 1990",0.65
same,T4 count,"[6]; June 21, 1990, 207 on May 7, 1990",330
same,time in which diarrhea and night sweats cleared,"[6]; after the beginning of the treatment, symptoms for the previous six weeks",≤ 48 h
same,weight gain,[6]; over the first month of treatment,about 0.5 lbs per day
same,change in the compound on storage,"[7]; Sample 1, tests over four months",no change in the compound
same,breakdown rate,[7]; dark container at room temperature,approximately 3 % per month
same,change in the FT-IR spectrum on storage,[7]; storage at -10 C for 110 days,little change in the FT-IR spectrum
same,levels of cytomegilovirus in cells in-vitro,[8],reduces
